Results: patent publication US9321790B2, “Pyrimidinone derivatives as antimalarial agents” (SANOFI, priority 2012, dated 2016)

Experiments:
human PI3Kα = human PI3Kα (Homo sapiens (Human), UniProt P42336); assay: Human PI3Kα activity test (luciferin/luciferase ATP consumption, KinaseGlo); assay type: biochemical; details: PI3Kα (p110α/p85α), 50 μM PIP2, 2 μM ATP, 90 minutes; read-out: IC50 Human PI3Kα
Method: The test uses a luciferin/luciferase system to measure the concentration of ATP and its consumption during the enzymatic reaction.
After 90 minutes, the reaction is quenched by adding 20 μl/well of KinaseGlo reagent (Promega V6713). After 10 minutes in the dark, the luminescence is read using a PHERAStar microplate reader (reading at 0.8 sec/well).

[1] = tested on: Plasmodium falciparum (strain NF54); assay: Antimalarial activity test: growth of Plasmodium falciparum in infected human erythrocytes, 3H-hypoxanthine incorporation; assay type: cell-based; details: strain NF54 sensitive to chloroquine, 72 h total incubation
Method: The compounds according to the invention underwent pharmacological trials to determine their inhibitory effect on the growth of Plasmodium falciparum (strain NF54 sensitive to inhibition with chloroquine) in an in vitro test using infected human erythrocytes. The growth of the parasites is measured via the incorporation of tritiated hypoxanthine compared with the incorporation in the absence of drug. The tests are performed in 96-well microplates (Falcon™ 96-well microtiter plates, ref. No. 353072) in RPMI 1640 solutions (10.44 g/l) (without hypoxanthine) with HEPES (5.94 g/l), NaHCO3 (2.1 g/l), neomycin ([…])+AlbumaxR II (5 g/l) supplemented with human erythrocytes with a final hematocrit of 1.25% and a final parasitemia of 0.15%.
The stock solution of the compounds is prepared at 10 mg/mL in DMSO. For the test, fresh solutions at the desired concentrations are prepared in RPMI medium. For the test, 100 μl of compound are mixed with 100 μl of infected blood. For the determination of the IC50 values, the compounds are tested in twofold serial dilution.
The plates are incubated at 37° C. under a humid atmosphere with 93% N2, 4% CO2 and 3% O2. After 48 hours, 50 μl of ^3H-hypoxanthine (=0.5 μCi) in RPMI medium are added to each well and incubation is continued for a further 24 hours. Next, the plates are washed with distilled water and the cell lyzate is transferred onto fiberglass filters. The filters are dried and the radioactivity is determined by liquid scintillation. The results in cpm are converted into percentages of inhibition. The inhibitory activity is given by the concentration that inhibits 50% of the growth of the parasite relative to a control without compound.

[2] = Plasmodium falciparum, Erythrocyte

Chain of human PI3Kα (P42336 whole entry): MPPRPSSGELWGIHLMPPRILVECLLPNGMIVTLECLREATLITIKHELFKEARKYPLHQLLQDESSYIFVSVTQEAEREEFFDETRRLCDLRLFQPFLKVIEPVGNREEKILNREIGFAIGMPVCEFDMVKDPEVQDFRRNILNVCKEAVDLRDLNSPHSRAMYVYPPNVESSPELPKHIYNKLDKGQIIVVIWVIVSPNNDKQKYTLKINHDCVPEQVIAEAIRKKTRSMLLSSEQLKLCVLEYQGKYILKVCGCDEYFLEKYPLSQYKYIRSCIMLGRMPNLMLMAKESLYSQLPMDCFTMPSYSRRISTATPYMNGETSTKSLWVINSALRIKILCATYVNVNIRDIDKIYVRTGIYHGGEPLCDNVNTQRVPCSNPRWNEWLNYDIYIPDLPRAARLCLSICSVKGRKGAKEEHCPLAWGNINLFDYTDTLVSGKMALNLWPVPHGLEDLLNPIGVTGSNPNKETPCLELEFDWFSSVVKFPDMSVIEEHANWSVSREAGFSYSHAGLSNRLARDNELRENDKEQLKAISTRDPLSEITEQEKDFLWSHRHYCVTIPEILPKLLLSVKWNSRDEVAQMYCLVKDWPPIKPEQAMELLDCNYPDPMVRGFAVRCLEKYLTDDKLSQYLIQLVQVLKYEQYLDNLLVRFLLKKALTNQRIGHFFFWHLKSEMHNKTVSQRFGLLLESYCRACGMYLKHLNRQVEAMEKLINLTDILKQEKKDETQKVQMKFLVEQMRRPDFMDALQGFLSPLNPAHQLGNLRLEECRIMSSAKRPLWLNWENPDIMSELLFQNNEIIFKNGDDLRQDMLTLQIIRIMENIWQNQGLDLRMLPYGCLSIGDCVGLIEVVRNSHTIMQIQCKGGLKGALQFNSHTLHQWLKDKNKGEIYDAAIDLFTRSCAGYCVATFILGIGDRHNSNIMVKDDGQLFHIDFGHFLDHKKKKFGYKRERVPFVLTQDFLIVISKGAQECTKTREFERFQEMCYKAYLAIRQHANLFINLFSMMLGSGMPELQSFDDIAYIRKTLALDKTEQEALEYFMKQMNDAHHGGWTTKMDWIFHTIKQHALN
Chain of human PI3Kα (P27986 whole entry partner): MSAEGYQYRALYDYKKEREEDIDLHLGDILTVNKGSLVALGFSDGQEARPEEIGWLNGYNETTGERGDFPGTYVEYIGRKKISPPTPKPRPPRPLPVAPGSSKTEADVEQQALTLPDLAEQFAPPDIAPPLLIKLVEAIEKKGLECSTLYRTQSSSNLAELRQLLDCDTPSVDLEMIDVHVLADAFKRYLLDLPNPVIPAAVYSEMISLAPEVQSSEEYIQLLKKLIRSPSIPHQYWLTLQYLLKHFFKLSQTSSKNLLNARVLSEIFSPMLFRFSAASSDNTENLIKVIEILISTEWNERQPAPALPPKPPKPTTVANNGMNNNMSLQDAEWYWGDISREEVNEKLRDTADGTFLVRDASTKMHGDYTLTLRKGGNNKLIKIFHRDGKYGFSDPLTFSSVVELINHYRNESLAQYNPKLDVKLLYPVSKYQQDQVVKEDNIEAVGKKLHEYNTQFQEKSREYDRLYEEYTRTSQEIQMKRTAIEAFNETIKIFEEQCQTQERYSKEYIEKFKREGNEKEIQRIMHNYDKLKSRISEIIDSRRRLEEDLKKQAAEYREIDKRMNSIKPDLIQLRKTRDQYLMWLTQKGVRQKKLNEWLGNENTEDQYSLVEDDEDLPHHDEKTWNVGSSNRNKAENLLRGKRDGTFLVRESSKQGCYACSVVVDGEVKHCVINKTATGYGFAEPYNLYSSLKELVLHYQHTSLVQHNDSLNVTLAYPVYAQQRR

Row | Compound | IC50 (human PI3Kα) [nM] | IC50 [1, 2] [nM] | IC50 [1] [nM]
1 | CC(C)(CN1c2nc(N3C[C@@H]4C[C@H]3CO4)cc(=O)n2CC[C@H]1C(F)(F)F)c1ccncc1 [Compound 1, (8S)-9-(2-methyl-2-pyrid-4-ylpropyl)-2-(1S,4S)-2-oxa-5-azabicyclo[2.2.1]hept-5-yl-8-trifluoromethyl-6,7,8,9-tetrahydropyrimido[1,2-a]pyrimidin-4-one] | 3130 | 20 | 
2 | O=C(CN1c2nc(N3C[C@@H]4C[C@H]3CO4)cc(=O)n2CC[C@H]1C(F)(F)F)c1cnc(OCC2CC2)nc1 [Compound 52, (8S)-9-[2-(2-Cyclopropylmethoxypyrimidin-5-yl)-2-oxoethyl]-2-(1S,4S)-2-oxa-5-azabicyclo[2.2.1]hept-5-yl-8-trifluoromethyl-6,7,8,9-tetrahydropyrimido[1,2-a]pyrimidin-4-one] | > 10000 | 130 | 
3 | O=C(CN1c2nc(N3C[C@@H]4C[C@H]3CO4)cc(=O)n2CC[C@H]1C(F)(F)F)N1CCOCC1 [Compound 110, (8S)-9-(2-Morpholin-4-yl-2-oxoethyl)-2-(1S,4S)-2-oxa-5-azabicyclo[2.2.1]hept-5-yl-8-trifluoromethyl-6,7,8,9-tetrahydropyrimido[1,2-a]pyrimidin-4-one] | > 10000 | 330 | 
4 | O=C(CN1c2nc(N3C[C@@H]4C[C@H]3CO4)cc(=O)n2CC[C@H]1C(F)(F)F)C1CC1 [Compound 67, (8S)-9-(2-Cyclopropyl-2-oxoethyl)-2-(1S,4S)-2-oxa-5-azabicyclo[2.2.1]hept-5-yl-8-trifluoromethyl-6,7,8,9-tetrahydropyrimido[1,2-a]pyrimidin-4-one] | 4000 | 43 | 
5 | CCC(O)(CC)CCN1c2nc(N3C[C@@H]4C[C@H]3CO4)cc(=O)n2CC[C@H]1C(F)(F)F [Compound 49, (8S)-9-(3-ethyl-3-hydroxypentyl)-2-(1S,4S)-2-oxa-5-azabicyclo[2.2.1]hept-5-yl-8-trifluoromethyl-6,7,8,9-tetrahydropyrimido[1,2-a]pyrimidin-4-one] | 2740 | 6 | 
6 | CN(C)CCOc1ccc(CCN2c3nc(N4CC5CCC(C4)O5)cc(=O)n3C[C@@]2(C)C(F)(F)F)cc1 [Compound 74, (S)-1-{2-[4-(2-dimethylaminoethoxy)phenyl]ethyl}-2-methyl-7-(8-oxa-3-azabicyclo[3.2.1]oct-3-yl)-2-trifluoromethyl-2,3-dihydro-1H-imidazo[1,2-a]pyrimidin-5-one] | 820 | 68 | 
7 | O=C(CN1c2nc(N3C[C@@H]4C[C@H]3CO4)cc(=O)n2CC[C@H]1C(F)(F)F)c1cccnc1 [Compound 7, (8S)-2-(1S,4S)-2-oxa-5-azabicyclo[2.2.1]hept-5-yl-9-(2-oxo-2-pyrid-3-ylethyl)-8-trifluoromethyl-6,7,8,9-tetrahydropyrimido[1,2-a]pyrimidin-4-one] | ≥ 10000 | 10 | 
8 | O=c1cc(N2C[C@@H]3C[C@H]2CO3)nc2n1CC[C@@H](C(F)(F)F)N2CCC1CCOCC1 [Compound 92, (8S)-2-(1S,4S)-2-oxa-5-azabicyclo[2.2.1]hept-5-yl-9-[2-(tetrahydropyran-4-yl)ethyl]-8-trifluoromethyl-6,7,8,9-tetrahydropyrimido[1,2-a]pyrimidin-4-one] | 450 | 4 | 
9 | O=C(CN1c2nc(N3C[C@@H]4C[C@H]3CO4)cc(=O)n2CC[C@H]1C(F)(F)F)c1ccc(NCCO)nc1 [Compound 14, (8S)-9-{2-[6-(2-hydroxyethylamino)pyrid-3-yl]-2-oxoethyl}-2-(1S,4S)-2-oxa-5-azabicyclo[2.2.1]hept-5-yl-8-trifluoromethyl-6,7,8,9-tetrahydropyrimido[1,2-a]pyrimidin-4-one] | > 10000 | 70 | 
10 | Cc1cncc(C(=O)CN2c3nc(N4C[C@@H]5C[C@H]4CO5)cc(=O)n3CC[C@H]2C(F)(F)F)c1 [Compound 15, (8S)-9-[2-(5-methylpyrid-3-yl)-2-oxoethyl]-2-(1S,4S)-2-oxa-5-azabicyclo[2.2.1]hept-5-yl-8-trifluoromethyl-6,7,8,9-tetrahydropyrimido[1,2-a]pyrimidin-4-one] | > 7200 | 150 | 
11 | O=C(COc1ccc(CCN2c3nc(N4C[C@@H]5C[C@H]4CO5)cc(=O)n3CC[C@H]2C(F)(F)F)cc1)N1CCOCC1 [Compound 115, (S)-9-{2-[4-(2-Morpholin-4-yl-2-oxoethoxy)phenyl]ethyl}-2-(1S,4S)-2-oxa-5-azabicyclo[2.2.1]hept-5-yl-8-trifluoromethyl-6,7,8,9-tetrahydropyrimido[1,2-a]pyrimidin-4-one] | 590 | 3 | 
12 | C[C@@]1(C(F)(F)F)Cn2c(nc(N3C[C@@H]4C[C@H]3CO4)cc2=O)N1CCc1cccnc1 [Compound 13, 2-Methyl-7-(1S,4S)-2-oxa-5-azabicyclo[2.2.1]hept-5-yl-1-(2-pyrid-3-ylethyl)-2-((S)-trifluoromethyl)-2,3-dihydro-1H-imidazo[1,2-a]pyrimidin-5-one] | 5750 |  | 21
13 | O=C(CN1c2nc(N3C[C@@H]4C[C@H]3CO4)cc(=O)n2CC[C@H]1C(F)(F)F)c1ccc(F)cc1F [Compound 48, (8S)-9-[2-(2,4-difluorophenyl)-2-oxoethyl]-2-(1S,4S)-2-oxa-5-azabicyclo[2.2.1]hept-5-yl-8-trifluoromethyl-6,7,8,9-tetrahydropyrimido[1,2-a]pyrimidin-4-one] | > 10000 | 27 | 
14 | CNc1ccc(C(=O)CN2c3nc(N4C[C@@H]5C[C@H]4CO5)cc(=O)n3C[C@@]2(C)C(F)(F)F)cn1 [Compound 9, 2-methyl-1-[2-(6-methylaminopyrid-3-yl)-2-oxoethyl]-7-(1S,4S)-2-oxa-5-azabicyclo[2.2.1]hept-5-yl-2-((S)-trifluoromethyl)-2,3-dihydro-1H-imidazo[1,2-a]pyrimidin-5-one] | > 10000 | > 200 | 
15 | CC(C)(C)C(=O)CN1c2nc(N3C[C@@H]4C[C@H]3CO4)cc(=O)n2C[C@@]1(C)C(F)(F)F [Compound 30, 1-(3,3-Dimethyl-2-oxobutyl)-2-methyl-7-(1S,4S)-2-oxa-5-azabicyclo[2.2.1]hept-5-yl-2-((S)-trifluoromethyl)-2,3-dihydro-1H-imidazo[1,2-a]pyrimidin-5-one] | > 10000 |  | > 240
16 | COc1cc(F)ccc1[C@H](O)CN1c2nc(N3CC4CCC(C3)O4)cc(=O)n2CC[C@H]1C(F)(F)F [Compound 71, (8S)-9-[(S)-2-(4-fluoro-2-methoxyphenyl)-2-hydroxyethyl]-2-(8-oxa-3-azabicyclo[3.2.1]oct-3-yl)-8-trifluoromethyl-6,7,8,9-tetrahydropyrimido[1,2-a]pyrimidin-4-one] | 810 | 23 | 
17 | O=C(CN1c2nc(N3C[C@@H]4C[C@H]3CO4)cc(=O)n2CC[C@H]1C(F)(F)F)c1ccc(OCCF)nc1 [Compound 63, (S)-9-{2-[6-(2-fluoroethoxy)pyrid-3-yl]-2-oxoethyl}-2-(1S,4S)-2-oxa-5-azabicyclo[2.2.1]hept-5-yl-8-trifluoromethyl-6,7,8,9-tetrahydropyrimido[1,2-a]pyrimidin-4-one] | > 7200 | 384 | 
18 | O=c1cc(N2CC3CCC(C2)O3)nc2n1CC[C@@H](C(F)(F)F)N2C[C@@H](O)c1cc2ccccc2s1 [Compound 82, (8S)-9-((R)-2-Benzo[b]thiophen-2-yl-2-hydroxyethyl)-2-(8-oxa-3-azabicyclo[3.2.1]oct-3-yl)-8-trifluoromethyl-6,7,8,9-tetrahydropyrimido[1,2-a]pyrimidin-4-one] | 340 | 9 | 
19 | Cc1nocc1C(=O)CN1c2nc(N3C[C@@H]4C[C@H]3CO4)cc(=O)n2CC[C@H]1C(F)(F)F [Compound 46, (8S)-9-[2-(3-Methylisoxazol-4-yl)-2-oxoethyl]-2-(1S,4S)-2-oxa-5-azabicyclo[2.2.1]hept-5-yl-8-trifluoromethyl-6,7,8,9-tetrahydropyrimido[1,2-a]pyrimidin-4-one] | > 10000 | 398 | 
20 | O=c1cc(N2C[C@@H]3C[C@H]2CO3)nc2n1CC[C@@H](C(F)(F)F)N2CC1(O)CCCC1 [Compound 101, (8S)-9-(1-Hydroxycyclopentylmethyl)-2-(1S,4S)-2-oxa-5-azabicyclo[2.2.1]hept-5-yl-8-trifluoromethyl-6,7,8,9-tetrahydropyrimido[1,2-a]pyrimidin-4-one] | 450 | 10 | 
21 | Cn1nc(CN2c3nc(N4C[C@@H]5C[C@H]4CO5)cc(=O)n3CC[C@H]2C(F)(F)F)c2ccccc21 [Compound 51, (8S)-9-(1-methyl-1H-indazol-3-ylmethyl)-2-(1S,4S)-2-oxa-5-azabicyclo[2.2.1]hept-5-yl-8-trifluoromethyl-6,7,8,9-tetrahydropyrimido[1,2-a]pyrimidin-4-one] | > 10000 | 65 | 
